From ChEMBL document CHEMBL1147347, “Luffariolides F and G, new manoalide derivatives from the Okinawan marine sponge Luffariella sp” (J Nat Prod, 1993)
Values after ≈ are worked out from the molar mass of the structure shown.

Assays:
L1210 = assay: Cytotoxicity against mouse L1210 cells; type: functional, cell-based
KB [1] = assay: Cytotoxicity against human KB cells; type: functional, cell-based
KB [2] = assay: Growth inhibition of human KB cells at 10 ug/ml; type: functional; conditions: read-out: GI

CC1=C(CC/C(C)=C/CC/C(C=O)=C\C=C\C2=CC(=O)O[C@H]2O)C(C)(C)CCC1
IC50 (L1210): 0.45 µg/mL (≈ 1.13 µM) | IC50 (KB [1]): 2.1 µg/mL (≈ 5.27 µM)

CC1=C(CC/C(C)=C/CC/C(=C/C[C@H]2OC(=O)C=C2CO)CO)C(C)(C)CCC1
IC50 (L1210): 1.7 µg/mL (≈ 4.22 µM) | inhibition of growth at 10 µg/mL (KB [2]): 36.9%

CC(=O)OC/C(=C\C[C@H]1OC(=O)C=C1CO)CC/C=C(\C)CCC1=C(C)CCCC1(C)C
IC50 (L1210): 3 µg/mL (≈ 6.75 µM) | inhibition of growth at 10 µg/mL (KB [2]): 44.8%

CC1=C(CC/C(C)=C/CC/C(C=O)=C\C[C@H]2OC(=O)C=C2CO)C(C)(C)CCC1
IC50 (L1210): 1 µg/mL (≈ 2.5 µM) | IC50 (KB [1]): 5.6 µg/mL (≈ 14 µM)

CC1=C(CC/C(C)=C/CC/C(=C/CC2OC(=O)C=C2CO)CO)C(C)(C)CCC1O (centres undefined) [LUFFARIOLIDE F]
IC50 (L1210): 1.6 µg/mL (≈ 3.82 µM) | inhibition of growth at 10 µg/mL (KB [2]): 33.4%

CC1=C(CCC(C)(O)/C=C/C/C(=C/CC2OC(=O)C=C2CO)CO)C(C)(C)CCC1 (centres undefined) [LUFFARIOLIDE G]
IC50 (L1210): 2.8 µg/mL (≈ 6.69 µM) | inhibition of growth at 10 µg/mL (KB [2]): 30.8%

CC1=C(CC/C(C)=C/CCC2=CC[C@H](C3=CC(=O)O[C@H]3O)O[C@H]2O)C(C)(C)CCC1 [MANOALIDE]
IC50 (L1210): 0.032 µg/mL (≈ 0.0768 µM) | IC50 (KB [1]): 0.31 µg/mL (≈ 0.744 µM)
